Results: US9340590B2 (priority 2011, dated 2016)
Where two headings read alike, the source gives them in different places. Positions of bridges follow the written chain, without caps; N, C: chain ends. Non-standard residues stand in square brackets, D forms with d. Residues, ends and D or L forms follow the SMILES beside them. Gly(cPent) = N[C@H](C(=O)O)C1CCCC1; 3Pal = N[C@@H](Cc1cccnc1)C(=O)O; 2Thi = N[C@@H](Cc1cccs1)C(=O)O; Chg = N[C@H](C(=O)O)C1CCCCC1

Assays:
Experiment in all cases: cell-based
hNav1.7 = hNav1.7 (Homo sapiens, UniProt Q15858); type: cell-based; conditions: IonWorks Quattro, hNav1.7, read-out: IWQ Use Nav1.7
hNav1.5 = hNav1.5 (Homo sapiens, UniProt Q14524); conditions: IonWorks Quattro, hNav1.5, read-out: IWQ Use Nav1.5
hNav1.3 = hNav1.3 (Homo sapiens, UniProt Q9NY46); conditions: IonWorks Quattro, hNav1.3, read-out: IWQ Use Nav1.3
hNav1.3, sequence (Q9NY46 whole entry, looked up): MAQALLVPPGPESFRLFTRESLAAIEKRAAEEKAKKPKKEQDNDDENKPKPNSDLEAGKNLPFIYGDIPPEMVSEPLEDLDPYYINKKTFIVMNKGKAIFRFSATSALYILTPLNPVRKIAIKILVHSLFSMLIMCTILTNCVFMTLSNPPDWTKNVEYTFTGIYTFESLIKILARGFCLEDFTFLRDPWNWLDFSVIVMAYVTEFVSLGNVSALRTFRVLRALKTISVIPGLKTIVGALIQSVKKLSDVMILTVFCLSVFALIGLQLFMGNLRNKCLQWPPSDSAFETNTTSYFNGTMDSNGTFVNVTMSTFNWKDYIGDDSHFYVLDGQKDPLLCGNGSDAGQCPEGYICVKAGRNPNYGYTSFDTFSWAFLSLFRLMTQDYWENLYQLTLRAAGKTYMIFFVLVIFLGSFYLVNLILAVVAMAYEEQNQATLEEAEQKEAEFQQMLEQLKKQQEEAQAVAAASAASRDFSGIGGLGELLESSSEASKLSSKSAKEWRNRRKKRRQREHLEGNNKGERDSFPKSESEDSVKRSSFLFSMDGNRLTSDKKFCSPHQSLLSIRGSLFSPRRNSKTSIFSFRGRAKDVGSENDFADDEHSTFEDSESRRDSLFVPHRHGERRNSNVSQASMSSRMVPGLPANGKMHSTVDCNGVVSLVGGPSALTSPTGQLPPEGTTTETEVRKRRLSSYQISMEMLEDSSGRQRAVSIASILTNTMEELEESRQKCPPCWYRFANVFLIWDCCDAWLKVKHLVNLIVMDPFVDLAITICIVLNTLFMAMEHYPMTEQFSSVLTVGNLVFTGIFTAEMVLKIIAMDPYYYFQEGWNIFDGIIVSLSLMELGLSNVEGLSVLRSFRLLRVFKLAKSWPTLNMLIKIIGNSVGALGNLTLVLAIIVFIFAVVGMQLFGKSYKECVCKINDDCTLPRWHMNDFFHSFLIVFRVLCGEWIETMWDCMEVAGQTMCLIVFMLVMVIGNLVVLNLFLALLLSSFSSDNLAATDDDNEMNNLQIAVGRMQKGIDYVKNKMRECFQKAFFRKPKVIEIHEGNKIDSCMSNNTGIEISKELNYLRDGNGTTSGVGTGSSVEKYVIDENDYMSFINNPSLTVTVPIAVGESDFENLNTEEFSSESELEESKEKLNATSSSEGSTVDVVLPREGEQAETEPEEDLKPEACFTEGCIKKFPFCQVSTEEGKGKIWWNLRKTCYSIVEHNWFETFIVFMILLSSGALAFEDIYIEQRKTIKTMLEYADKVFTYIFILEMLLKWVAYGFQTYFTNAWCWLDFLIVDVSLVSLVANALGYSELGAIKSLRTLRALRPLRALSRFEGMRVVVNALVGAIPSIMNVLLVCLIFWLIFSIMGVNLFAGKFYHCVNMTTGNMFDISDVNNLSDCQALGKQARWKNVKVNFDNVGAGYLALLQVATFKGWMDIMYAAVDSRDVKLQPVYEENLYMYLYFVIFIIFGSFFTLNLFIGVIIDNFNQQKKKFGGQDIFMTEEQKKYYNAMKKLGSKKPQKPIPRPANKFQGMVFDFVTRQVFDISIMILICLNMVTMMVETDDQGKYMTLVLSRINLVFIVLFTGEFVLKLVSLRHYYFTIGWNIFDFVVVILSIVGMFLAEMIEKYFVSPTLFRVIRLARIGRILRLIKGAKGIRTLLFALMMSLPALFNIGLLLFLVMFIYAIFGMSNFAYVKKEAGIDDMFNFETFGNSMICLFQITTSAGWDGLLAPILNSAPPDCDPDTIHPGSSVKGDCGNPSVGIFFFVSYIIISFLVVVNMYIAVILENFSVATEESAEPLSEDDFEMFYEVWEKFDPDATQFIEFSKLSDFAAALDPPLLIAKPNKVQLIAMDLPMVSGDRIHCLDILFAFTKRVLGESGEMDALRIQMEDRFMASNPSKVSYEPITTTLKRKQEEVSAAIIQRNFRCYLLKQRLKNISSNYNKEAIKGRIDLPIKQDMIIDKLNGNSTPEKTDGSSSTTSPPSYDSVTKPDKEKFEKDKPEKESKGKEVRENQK

hNav1.7, sequence (Q15858 whole entry, looked up): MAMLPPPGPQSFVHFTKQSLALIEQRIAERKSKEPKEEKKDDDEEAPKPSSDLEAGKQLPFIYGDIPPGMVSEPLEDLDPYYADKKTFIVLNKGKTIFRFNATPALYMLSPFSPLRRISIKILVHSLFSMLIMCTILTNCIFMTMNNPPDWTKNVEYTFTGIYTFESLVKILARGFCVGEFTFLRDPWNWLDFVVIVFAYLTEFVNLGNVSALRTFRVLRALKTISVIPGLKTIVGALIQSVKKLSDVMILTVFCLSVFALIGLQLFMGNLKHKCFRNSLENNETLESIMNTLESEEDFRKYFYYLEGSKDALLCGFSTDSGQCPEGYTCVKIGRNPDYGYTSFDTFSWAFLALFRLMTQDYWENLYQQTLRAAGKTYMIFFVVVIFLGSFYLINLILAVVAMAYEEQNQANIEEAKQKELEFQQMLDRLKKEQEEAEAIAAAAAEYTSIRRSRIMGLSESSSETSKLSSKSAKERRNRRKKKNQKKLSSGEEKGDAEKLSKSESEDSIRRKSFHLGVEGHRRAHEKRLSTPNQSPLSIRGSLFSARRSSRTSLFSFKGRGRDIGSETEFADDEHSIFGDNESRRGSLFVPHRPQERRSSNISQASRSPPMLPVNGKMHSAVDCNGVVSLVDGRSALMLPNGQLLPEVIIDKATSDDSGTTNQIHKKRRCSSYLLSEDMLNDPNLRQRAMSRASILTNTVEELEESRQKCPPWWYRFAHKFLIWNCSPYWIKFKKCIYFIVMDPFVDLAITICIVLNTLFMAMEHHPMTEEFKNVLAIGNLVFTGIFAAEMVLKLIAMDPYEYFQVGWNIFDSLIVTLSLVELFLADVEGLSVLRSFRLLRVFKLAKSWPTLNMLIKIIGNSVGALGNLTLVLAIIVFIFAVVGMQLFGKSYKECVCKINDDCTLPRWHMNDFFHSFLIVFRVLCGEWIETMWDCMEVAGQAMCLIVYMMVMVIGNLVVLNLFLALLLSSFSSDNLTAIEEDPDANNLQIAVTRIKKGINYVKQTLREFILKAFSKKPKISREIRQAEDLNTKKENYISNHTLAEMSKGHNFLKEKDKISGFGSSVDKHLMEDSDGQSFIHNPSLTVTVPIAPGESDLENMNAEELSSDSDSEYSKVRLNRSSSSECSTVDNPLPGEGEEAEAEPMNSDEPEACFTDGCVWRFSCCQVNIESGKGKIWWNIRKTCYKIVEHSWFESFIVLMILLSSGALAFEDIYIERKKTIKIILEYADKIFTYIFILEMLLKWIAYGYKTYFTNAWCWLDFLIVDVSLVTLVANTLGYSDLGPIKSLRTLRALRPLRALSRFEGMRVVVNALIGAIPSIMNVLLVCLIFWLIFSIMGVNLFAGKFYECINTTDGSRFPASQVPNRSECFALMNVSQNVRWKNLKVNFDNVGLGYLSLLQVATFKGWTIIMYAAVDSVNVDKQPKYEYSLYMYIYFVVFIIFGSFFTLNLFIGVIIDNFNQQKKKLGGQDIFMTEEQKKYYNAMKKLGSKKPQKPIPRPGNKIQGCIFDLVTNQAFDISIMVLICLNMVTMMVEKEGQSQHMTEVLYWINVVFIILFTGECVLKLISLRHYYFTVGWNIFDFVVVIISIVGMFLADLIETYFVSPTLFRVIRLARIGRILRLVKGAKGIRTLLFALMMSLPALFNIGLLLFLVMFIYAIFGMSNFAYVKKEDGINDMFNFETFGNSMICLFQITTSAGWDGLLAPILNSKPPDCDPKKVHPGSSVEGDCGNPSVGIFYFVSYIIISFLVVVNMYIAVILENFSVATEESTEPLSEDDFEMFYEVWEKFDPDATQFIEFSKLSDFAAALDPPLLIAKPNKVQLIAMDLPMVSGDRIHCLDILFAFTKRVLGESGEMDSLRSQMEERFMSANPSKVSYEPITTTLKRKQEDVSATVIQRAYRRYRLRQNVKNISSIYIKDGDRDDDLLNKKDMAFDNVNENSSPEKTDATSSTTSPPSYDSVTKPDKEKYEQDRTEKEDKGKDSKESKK

SMILES	IC50 (hNav1.7; use-dependent block)	IC50 (hNav1.5; use-dependent block)	IC50 (hNav1.3; use-dependent block)	IC50 (hNav1.7; use-dependent protocol)	IC50 (hNav1.5; use-dependent protocol)	IC50 (hNav1.3; use-dependent protocol)
CC[C@H](C)[C@@H]1NC(=O)[C@@H]2CSSC[C@@H]3NC(=O)[C@H](C(C)C)NC(=O)[C@H](CC(C)C)NC(=O)[C@H](CC(N)=O)NC(=O)[C@@H]4CCCN4C(=O)[C@H](CCCNC(=N)N)NC(=O)[C@H](CSSC[C@H](NC(=O)[C@@H](N)CC(=O)O)C(=O)N[C@@H](CC(C)C)C(=O)NCC(=O)N[C@@H](CCSC)C(=O)N[C@@H](Cc4ccccc4)C(=O)N[C@@H](CCCNC(=N)N)C(=O)N[C@@H](CCCCN)C(=O)N2)NC(=O)[C@H](CSSC[C@@H](C(=O)N[C@@H](CCCCN)C(=O)N[C@@H](Cc2ccc(O)cc2)C(=O)N[C@H](C(=O)N[C@@H](Cc2ccccc2)C(N)=O)C(C)C)NC(=O)[C@H](Cc2c[nH]c4ccccc24)NC(=O)[C@H](CCCCN)NC(=O)[C@H](Cc2c[nH]cn2)NC(=O)[C@H]([C@@H](C)O)NC(=O)[C@H](CCCNC(=N)N)NC(=O)[C@H](CO)NC3=O)NC(=O)[C@H](CCCCN)NC(=O)[C@H](CC(=O)O)NC(=O)[C@H](CC(N)=O)NC(=O)[C@H](CC(=O)O)NC(=O)[C@@H]2CCCN2C1=O [compound 611] (H-DCLGMFRKCIPDNDKCCRPNLVCSRTHKWCKYVF-NH2; disulfide 2-17, 9-23, 16-30)	43 nM	13300 nM	110 nM	–	–	–
CC[C@H](C)[C@@H]1NC(=O)[C@@H]2CSSC[C@@H]3NC(=O)[C@H](C(C)C)NC(=O)[C@H](CC(C)C)NC(=O)[C@H](CC(N)=O)NC(=O)[C@@H]4CCCN4C(=O)[C@H](CCCNC(=N)N)NC(=O)[C@H](CSSC[C@H](NC(=O)[C@@H](N)CC(=O)O)C(=O)N[C@@H](CC(C)C)C(=O)NCC(=O)N[C@@H](CC(C)C)C(=O)N[C@@H](Cc4ccccc4)C(=O)N[C@@H](CCCNC(=N)N)C(=O)N[C@@H](CCCCN)C(=O)N2)NC(=O)[C@H](CSSC[C@@H](C(=O)N[C@@H](CCCCN)C(=O)N[C@@H](Cc2ccc(O)cc2)C(=O)N[C@H](C(=O)N[C@@H](Cc2ccccc2)C(N)=O)C(C)C)NC(=O)[C@H](Cc2c[nH]c4ccccc24)NC(=O)[C@H](CCCCN)NC(=O)[C@H](Cc2c[nH]cn2)NC(=O)[C@H]([C@@H](C)O)NC(=O)[C@H](CCCNC(=N)N)NC(=O)[C@H](CO)NC3=O)NC(=O)[C@H](CCCCN)NC(=O)[C@H](CC(=O)O)NC(=O)[C@H](CC(N)=O)NC(=O)[C@H](CC(=O)O)NC(=O)[C@@H]2CCCN2C1=O [compound 612] (H-DCLGLFRKCIPDNDKCCRPNLVCSRTHKWCKYVF-NH2; disulfide 2-17, 9-23, 16-30)	57 nM	20100 nM	220 nM	–	–	–
CC[C@H](C)[C@@H]1NC(=O)[C@@H]2CSSC[C@@H]3NC(=O)[C@H](C(C)C)NC(=O)[C@H](CC(C)C)NC(=O)[C@H](CC(N)=O)NC(=O)[C@@H]4CCCN4C(=O)[C@H](CCCNC(=N)N)NC(=O)[C@H](CSSC[C@H](NC(=O)[C@@H](N)CC(=O)O)C(=O)N[C@@H](CC(C)C)C(=O)NCC(=O)N[C@@H](Cc4cccnc4)C(=O)N[C@@H](Cc4ccccc4)C(=O)N[C@@H](CCCNC(=N)N)C(=O)N[C@@H](CCCCN)C(=O)N2)NC(=O)[C@H](CSSC[C@@H](C(=O)N[C@@H](CCCCN)C(=O)N[C@@H](Cc2ccc(O)cc2)C(=O)N[C@H](C(=O)N[C@@H](Cc2ccccc2)C(N)=O)C(C)C)NC(=O)[C@H](Cc2c[nH]c4ccccc24)NC(=O)[C@H](CCCCN)NC(=O)[C@H](Cc2c[nH]cn2)NC(=O)[C@H]([C@@H](C)O)NC(=O)[C@H](CCCNC(=N)N)NC(=O)[C@H](CO)NC3=O)NC(=O)[C@H](CCCCN)NC(=O)[C@H](CC(=O)O)NC(=O)[C@H](CC(N)=O)NC(=O)[C@H](CC(=O)O)NC(=O)[C@@H]2CCCN2C1=O [compound 613] (H-DCLG[3Pal]FRKCIPDNDKCCRPNLVCSRTHKWCKYVF-NH2; disulfide 2-17, 9-23, 16-30)	950 nM	18700 nM	3600 nM	–	–	–
CC[C@H](C)[C@@H]1NC(=O)[C@@H]2CSSC[C@@H]3NC(=O)[C@H](C(C)C)NC(=O)[C@H](CC(C)C)NC(=O)[C@H](CC(N)=O)NC(=O)[C@@H]4CCCN4C(=O)[C@H](CCCNC(=N)N)NC(=O)[C@H](CSSC[C@H](NC(=O)[C@@H](N)CC(=O)O)C(=O)N[C@@H](CC(C)C)C(=O)NCC(=O)N[C@@H](Cc4cccs4)C(=O)N[C@@H](Cc4ccccc4)C(=O)N[C@@H](CCCNC(=N)N)C(=O)N[C@@H](CCCCN)C(=O)N2)NC(=O)[C@H](CSSC[C@@H](C(=O)N[C@@H](CCCCN)C(=O)N[C@@H](Cc2ccc(O)cc2)C(=O)N[C@H](C(=O)N[C@@H](Cc2ccccc2)C(N)=O)C(C)C)NC(=O)[C@H](Cc2c[nH]c4ccccc24)NC(=O)[C@H](CCCCN)NC(=O)[C@H](Cc2c[nH]cn2)NC(=O)[C@H]([C@@H](C)O)NC(=O)[C@H](CCCNC(=N)N)NC(=O)[C@H](CO)NC3=O)NC(=O)[C@H](CCCCN)NC(=O)[C@H](CC(=O)O)NC(=O)[C@H](CC(N)=O)NC(=O)[C@H](CC(=O)O)NC(=O)[C@@H]2CCCN2C1=O [compound 614] (H-DCLG[2Thi]FRKCIPDNDKCCRPNLVCSRTHKWCKYVF-NH2; disulfide 2-17, 9-23, 16-30)	12 nM	4100 nM	77 nM	–	–	–
CC[C@H](C)[C@@H]1NC(=O)[C@@H]2CSSC[C@@H]3NC(=O)[C@H](C(C)C)NC(=O)[C@H](CC(C)C)NC(=O)[C@H](CC(N)=O)NC(=O)[C@@H]4CCCN4C(=O)[C@H](CCCNC(=N)N)NC(=O)[C@H](CSSC[C@H](NC(=O)[C@@H](N)CC(=O)O)C(=O)N[C@@H](CC(C)C)C(=O)NCC(=O)N[C@@H](C4CCCC4)C(=O)N[C@@H](Cc4ccccc4)C(=O)N[C@@H](CCCNC(=N)N)C(=O)N[C@@H](CCCCN)C(=O)N2)NC(=O)[C@H](CSSC[C@@H](C(=O)N[C@@H](CCCCN)C(=O)N[C@@H](Cc2ccc(O)cc2)C(=O)N[C@H](C(=O)N[C@@H](Cc2ccccc2)C(N)=O)C(C)C)NC(=O)[C@H](Cc2c[nH]c4ccccc24)NC(=O)[C@H](CCCCN)NC(=O)[C@H](Cc2c[nH]cn2)NC(=O)[C@H]([C@@H](C)O)NC(=O)[C@H](CCCNC(=N)N)NC(=O)[C@H](CO)NC3=O)NC(=O)[C@H](CCCCN)NC(=O)[C@H](CC(=O)O)NC(=O)[C@H](CC(N)=O)NC(=O)[C@H](CC(=O)O)NC(=O)[C@@H]2CCCN2C1=O [compound 615] (H-DCLG[Gly(cPent)]FRKCIPDNDKCCRPNLVCSRTHKWCKYVF-NH2; disulfide 2-17, 9-23, 16-30)	–	–	–	35 nM	5600 nM	120 nM
CC[C@H](C)[C@@H]1NC(=O)[C@@H]2CSSC[C@@H]3NC(=O)[C@H](C(C)C)NC(=O)[C@H](CC(C)C)NC(=O)[C@H](CC(N)=O)NC(=O)[C@@H]4CCCN4C(=O)[C@H](CCCNC(=N)N)NC(=O)[C@H](CSSC[C@H](NC(=O)[C@@H](N)CC(=O)O)C(=O)N[C@@H](CC(C)C)C(=O)NCC(=O)N[C@@H](C4CCCCC4)C(=O)N[C@@H](Cc4ccccc4)C(=O)N[C@@H](CCCNC(=N)N)C(=O)N[C@@H](CCCCN)C(=O)N2)NC(=O)[C@H](CSSC[C@@H](C(=O)N[C@@H](CCCCN)C(=O)N[C@@H](Cc2ccc(O)cc2)C(=O)N[C@H](C(=O)N[C@@H](Cc2ccccc2)C(N)=O)C(C)C)NC(=O)[C@H](Cc2c[nH]c4ccccc24)NC(=O)[C@H](CCCCN)NC(=O)[C@H](Cc2c[nH]cn2)NC(=O)[C@H]([C@@H](C)O)NC(=O)[C@H](CCCNC(=N)N)NC(=O)[C@H](CO)NC3=O)NC(=O)[C@H](CCCCN)NC(=O)[C@H](CC(=O)O)NC(=O)[C@H](CC(N)=O)NC(=O)[C@H](CC(=O)O)NC(=O)[C@@H]2CCCN2C1=O [compound 616] (H-DCLG[Chg]FRKCIPDNDKCCRPNLVCSRTHKWCKYVF-NH2; disulfide 2-17, 9-23, 16-30)	–	–	–	23 nM	6900 nM	75 nM
CC[C@H](C)[C@@H]1NC(=O)[C@@H]2CSSC[C@@H]3NC(=O)[C@H](C(C)C)NC(=O)[C@H](CC(C)C)NC(=O)[C@H](CC(N)=O)NC(=O)[C@@H]4CCCN4C(=O)[C@H](CCCNC(=N)N)NC(=O)[C@H](CSSC[C@H](NC(=O)[C@@H](N)CC(=O)O)C(=O)N[C@@H](CC(C)C)C(=O)NCC(=O)N[C@@H](CO)C(=O)N[C@@H](Cc4ccccc4)C(=O)N[C@@H](CCCNC(=N)N)C(=O)N[C@@H](CCCCN)C(=O)N2)NC(=O)[C@H](CSSC[C@@H](C(=O)N[C@@H](CCCCN)C(=O)N[C@@H](Cc2ccc(O)cc2)C(=O)N[C@H](C(=O)N[C@@H](Cc2ccccc2)C(N)=O)C(C)C)NC(=O)[C@H](Cc2c[nH]c4ccccc24)NC(=O)[C@H](CCCCN)NC(=O)[C@H](Cc2c[nH]cn2)NC(=O)[C@H]([C@@H](C)O)NC(=O)[C@H](CCCNC(=N)N)NC(=O)[C@H](CO)NC3=O)NC(=O)[C@H](CCCCN)NC(=O)[C@H](CC(=O)O)NC(=O)[C@H](CC(N)=O)NC(=O)[C@H](CC(=O)O)NC(=O)[C@@H]2CCCN2C1=O [compound 617] (H-DCLGSFRKCIPDNDKCCRPNLVCSRTHKWCKYVF-NH2; disulfide 2-17, 9-23, 16-30)	–	–	–	760 nM	11900 nM	1700 nM
CC[C@H](C)[C@@H]1NC(=O)[C@@H]2CSSC[C@@H]3NC(=O)[C@H](C(C)C)NC(=O)[C@H](CC(C)C)NC(=O)[C@H](CC(N)=O)NC(=O)[C@@H]4CCCN4C(=O)[C@H](CCCNC(=N)N)NC(=O)[C@H](CSSC[C@H](NC(=O)[C@@H](N)CC(=O)O)C(=O)N[C@@H](CC(C)C)C(=O)NCC(=O)N[C@@H](C(C)C)C(=O)N[C@@H](Cc4ccccc4)C(=O)N[C@@H](CCCNC(=N)N)C(=O)N[C@@H](CCCCN)C(=O)N2)NC(=O)[C@H](CSSC[C@@H](C(=O)N[C@@H](CCCCN)C(=O)N[C@@H](Cc2ccc(O)cc2)C(=O)N[C@H](C(=O)N[C@@H](Cc2ccccc2)C(N)=O)C(C)C)NC(=O)[C@H](Cc2c[nH]c4ccccc24)NC(=O)[C@H](CCCCN)NC(=O)[C@H](Cc2c[nH]cn2)NC(=O)[C@H]([C@@H](C)O)NC(=O)[C@H](CCCNC(=N)N)NC(=O)[C@H](CO)NC3=O)NC(=O)[C@H](CCCCN)NC(=O)[C@H](CC(=O)O)NC(=O)[C@H](CC(N)=O)NC(=O)[C@H](CC(=O)O)NC(=O)[C@@H]2CCCN2C1=O [compound 618] (H-DCLGVFRKCIPDNDKCCRPNLVCSRTHKWCKYVF-NH2; disulfide 2-17, 9-23, 16-30)	–	–	–	120 nM	9400 nM	99 nM
